In patent US11422132B2, “Peptides and uses thereof for diagnosing and treating myasthenia gravis” (The Regents of the University of California, priority 2016, dated 2022):
Entries after “also recorded” stand apart in the source; their conditions may differ.

Legend:
Assay type in all cases: binding, rat
mAb 35 [1] = test: Western blot of peptide-IChBD fusion proteins probed with mAb 35; design: key to mAb 35, fold-change in binding relative to Torpedo 39MIR: ‘—’ denotes no binding; conditions: for mAb 35 binding, result in words: Western blot; for mAb 35 binding relative to binding to the Torpedo 39MIR: FIG. 5 Western blots, Torpedo 39MIR single mutants; for mAb 35, fold-change in binding relative to Torpedo 39MIR: Table 1, Western blot of FIG. 5, Torpedo 39MIR single mutants
Procedure: (§1) Chitin beads adsorbed with peptide-IChBD fusion proteins were run on an SDS-PAGE gel and transferred to a nitrocellulose membrane and assayed with the four mAbs.
(§2) Chitin beads adsorbed with peptide-IChBD fusion proteins were run on an SDS-PAGE gel and transferred to a nitrocellulose membrane and assayed with the five mAbs.
(§3) To explore the effects of individual amino acid substitutions between the Torpedo and the human AChR MIR mimics, eight peptides were prepared, each with an amino acid substituted from the human sequence into the Torpedo sequence. The single amino acid substitutions in the Torpedo MIR were: N10K (SEQ ID NO:11), L12F (SEQ ID NO:12), R66K (SEQ ID NO:13), A70D (SEQ ID NO:14), I75V (SEQ ID NO:15), R79H (SEQ ID NO:16), D111Q (SEQ ID NO:17), and K115H (SEQ ID NO:18).

mAb 198 = test: Western blot of peptide-IChBD fusion proteins probed with mAb 198; conditions: for mAb 198 binding relative to Torpedo 39MIR: FIG. 5 Western blots, Torpedo 39MIR single mutants
Excerpt: as §1, §2
The Torpedo (SEQ ID NO:9) and human (SEQ ID NO:8) 39MIRs were made by joining the α(1-12), α(65-79), and α(110-115) segments of their respective a subunits with GS linkers. These two MIR mimics were expressed in E. coli as fusion proteins with an IChBD tag to permit peptide collection on chitin beads. These two peptides differ from each other by eight amino acids (FIG. 2). Both mimics were probed with mAb 198. mAb 198, which was derived from rats that had been immunized with human muscle AChR, is a MIR-directed mAb that binds mammalian as well as Torpedo MIR (13,21). It was also able to passively transfer EAMG to rats and binds to both native assembled AChR and to α-subunit fragments in Western blots (22,23). mAb 198 binds to the Torpedo and human MIR peptide mimics in Western blots (FIG. 3). However, mAb 198 binds to the Torpedo mimic about 50 times more strongly than to the human MIR mimic (FIG. 3).
as §3

mAb 35 [2] = test: Western blot of peptide-IChBD fusion proteins probed with mAb 35; design: key to mAb 35, fold-change in binding relative to Torpedo 39MIR: ‘—’ denotes no binding; conditions: for mAb 35, fold-change in binding relative to Torpedo 39MIR: Table 3, single-substitution human 39MIR mutants
mAb 132A [3] = test: Western blot of peptide-IChBD fusion proteins probed with mAb 132A; design: key to mAb 132A, fold-change in binding relative to Torpedo 39MIR: ‘—’ denotes no binding; conditions: Table 3, single-substitution human 39MIR mutants
mAb 132A [4] = test: as above; conditions: for mAb 132A binding relative to binding to the Torpedo 39MIR: FIG. 5 Western blots, Torpedo 39MIR single mutants; for mAb 132A, fold-change in binding relative to Torpedo 39MIR: Table 1, Western blot of FIG. 5, Torpedo 39MIR single mutants
Procedure: as §1, §2, §3

mAb 334 = test: Western blot of peptide-IChBD fusion proteins probed with mAb 334; conditions: for mAb 334 binding relative to Torpedo 39MIR: FIG. 5 Western blots, Torpedo 39MIR single mutants; for mAb 334, fold-change in binding relative to Torpedo 39MIR: Table 1, Western blot of FIG. 5, Torpedo 39MIR single mutants
Procedure: as §2, §3

[5] = Table 3, single-substitution human 39MIR mutants
[6] = Table 1, Western blot of FIG. 5, Torpedo 39MIR single mutants

Sequence | mAb 35 binding, result in words (mAb 35 [1]) | mAb 198, fold-change in binding relative to Torpedo 39MIR (mAb 198; [5]) | mAb 198 binding compared to its binding to the human 39MIR (mAb 198; human 39MIR mutants, relative to human 39MIR) | mAb 35, fold-change in binding relative to Torpedo 39MIR (mAb 35 [2]) | mAb 35 binding compared to the Torpedo 39MIR peptide (mAb 35 [2]; single point mutated human 39MIR peptides) | mAb 132A, fold-change in binding relative to Torpedo 39MIR (mAb 132A [3]) | mAb 35 binding relative to binding to the Torpedo 39MIR (mAb 35 [1]) | mAb 35, fold-change in binding relative to Torpedo 39MIR (mAb 35 [1]) | mAb 132A binding relative to binding to the Torpedo 39MIR (mAb 132A [4]) | mAb 132A, fold-change in binding relative to Torpedo 39MIR (mAb 132A [4]) | mAb 198, fold-change in binding relative to Torpedo 39MIR (mAb 198; [6]) | mAb 334 binding relative to Torpedo 39MIR (mAb 334) | mAb 334, fold-change in binding relative to Torpedo 39MIR (mAb 334) | mAb 198 binding relative to Torpedo 39MIR (mAb 198) | mAb 198 binding, result in words (mAb 198; Western blot)
SEHETRLVAKLFGGGSLKWNPDDYGGIKKIHGSLQYTGH (synthetic main immunogenic region (MIR) peptide) [Mutant V75I, Human 39MIR single mutant (V75I)] | restored mAb 35 binding | 0.65 fold-change | 40 × | 0.03 fold-change | 0.03 | — |  |  |  |  |  |  |  |  | 
SEHETRLVANLLGGGSLRWNPADYGGIKKIHGSLDYTGK (synthetic main immunogenic region (MIR) peptide) [Mutant R79H, Torpedo 39MIR single mutant (R79H)] |  |  |  |  |  |  | 1.91 × | 1.91 fold-change | 1.65 × | 1.65 fold-change | 0.97 fold-change | 2.40 × | 2.40 fold-change |  | 
SEHETRLVANLLGGGSLRWNPADYGGVKKIRGSLDYTGK (synthetic main immunogenic region (MIR) peptide) [Mutant I75V, Torpedo 39MIR single mutant (I75V)] | did not bind |  |  |  |  |  |  | — | 0.07 × | 0.06 fold-change | 0.16 fold-change | 0.03 × | 0.03 fold-change | 0.16 × | 
SEHETRLVANLLGGGSLRWNPADYGGIKKIRGSLQYTGK (synthetic main immunogenic region (MIR) peptide) [Mutant D111Q, Torpedo 39MIR single mutant (D111Q)] | did not bind |  |  |  |  |  |  | — | 0.07 × | 0.07 fold-change | 0.16 fold-change | 0.02 × | 0.02 fold-change | 0.16 × | 
SEHETRLVANLLGGGSLRWNPDDYGGIKKIRGSLDYTGK (synthetic main immunogenic region (MIR) peptide) [Mutant A70D, Torpedo 39MIR single mutant (A70D)] |  |  |  |  |  |  | 0.93 × | 0.93 fold-change | 0.20 × | 0.20 fold-change | 1.08 fold-change | 1.04 × | 1.04 fold-change |  | 
SEHETRLVANLLGGGSLRWNPADYGGIKKIRGSLDYTGH (synthetic main immunogenic region (MIR) peptide) [Mutant K115H, Torpedo 39MIR single mutant (K115H)] | did not bind; also recorded: completely abolished |  |  |  |  |  |  | — | 0.40 × | 0.40 fold-change | 1.07 fold-change | 0.42 × | 0.42 fold-change |  | 
SEHETRLVAKLFGGGSLKWNPADYGGVKKIHGSLQYTGH (synthetic main immunogenic region (MIR) peptide) [Mutant D70A, Human 39MIR single mutant (D70A)] | failed to restore mAb 35 binding | 0.02 fold-change |  | — |  | — |  |  |  |  |  |  |  |  | comparable to binding to human 39MIR
